{"source": "patent US20130005718A1", "about": "(priority 2009, published 2013)", "key": {"HCN1 channels": {"target": "T1, HCN1 channels (Mus musculus, UniProt O88704)", "T1 construct": "expressed in transfected cells; host or cells: Xenopus oocytes (cRNA injection)", "T1 sequence (O88704 whole entry, canonical isoform)": "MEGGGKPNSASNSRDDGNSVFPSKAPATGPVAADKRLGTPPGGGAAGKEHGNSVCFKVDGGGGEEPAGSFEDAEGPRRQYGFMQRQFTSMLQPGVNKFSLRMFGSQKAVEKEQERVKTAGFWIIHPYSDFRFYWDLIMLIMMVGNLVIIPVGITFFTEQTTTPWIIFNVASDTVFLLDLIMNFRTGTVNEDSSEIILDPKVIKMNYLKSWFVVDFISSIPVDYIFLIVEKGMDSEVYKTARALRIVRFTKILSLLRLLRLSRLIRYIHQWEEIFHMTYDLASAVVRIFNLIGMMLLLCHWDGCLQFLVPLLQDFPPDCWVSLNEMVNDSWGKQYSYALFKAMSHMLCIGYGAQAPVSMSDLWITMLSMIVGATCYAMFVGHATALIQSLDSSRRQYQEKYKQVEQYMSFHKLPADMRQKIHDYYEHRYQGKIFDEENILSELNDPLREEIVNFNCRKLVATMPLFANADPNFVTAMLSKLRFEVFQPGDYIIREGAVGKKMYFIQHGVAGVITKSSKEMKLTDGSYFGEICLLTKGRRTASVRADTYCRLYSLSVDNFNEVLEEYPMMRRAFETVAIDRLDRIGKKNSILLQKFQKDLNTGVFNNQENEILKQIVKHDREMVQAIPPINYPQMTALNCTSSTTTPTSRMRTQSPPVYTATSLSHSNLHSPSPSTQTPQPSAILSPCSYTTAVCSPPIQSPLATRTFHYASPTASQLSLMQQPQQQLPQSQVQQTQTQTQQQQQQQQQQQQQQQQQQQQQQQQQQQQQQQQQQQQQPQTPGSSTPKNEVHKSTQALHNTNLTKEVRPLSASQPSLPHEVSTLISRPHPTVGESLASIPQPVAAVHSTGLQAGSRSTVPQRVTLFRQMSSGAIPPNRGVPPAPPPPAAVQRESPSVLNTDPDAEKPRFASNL", "experiment": "Two-electrode voltage clamp (TEVC) of HCN1 channel gating in Xenopus oocytes", "type": "cell-based, murine", "details": "for HCN isoform preference (words): HCN1 versus HCN2, 3 or 4"}, "GABAA-Rs": {"test_system": "GABAA-Rs", "details": "cited from earlier work"}, "[1]": {"details": "in vivo; cited from earlier work"}, "HCN2": {"target": "HCN2 (Mus musculus, UniProt O88703)", "sequence (O88703 whole entry)": "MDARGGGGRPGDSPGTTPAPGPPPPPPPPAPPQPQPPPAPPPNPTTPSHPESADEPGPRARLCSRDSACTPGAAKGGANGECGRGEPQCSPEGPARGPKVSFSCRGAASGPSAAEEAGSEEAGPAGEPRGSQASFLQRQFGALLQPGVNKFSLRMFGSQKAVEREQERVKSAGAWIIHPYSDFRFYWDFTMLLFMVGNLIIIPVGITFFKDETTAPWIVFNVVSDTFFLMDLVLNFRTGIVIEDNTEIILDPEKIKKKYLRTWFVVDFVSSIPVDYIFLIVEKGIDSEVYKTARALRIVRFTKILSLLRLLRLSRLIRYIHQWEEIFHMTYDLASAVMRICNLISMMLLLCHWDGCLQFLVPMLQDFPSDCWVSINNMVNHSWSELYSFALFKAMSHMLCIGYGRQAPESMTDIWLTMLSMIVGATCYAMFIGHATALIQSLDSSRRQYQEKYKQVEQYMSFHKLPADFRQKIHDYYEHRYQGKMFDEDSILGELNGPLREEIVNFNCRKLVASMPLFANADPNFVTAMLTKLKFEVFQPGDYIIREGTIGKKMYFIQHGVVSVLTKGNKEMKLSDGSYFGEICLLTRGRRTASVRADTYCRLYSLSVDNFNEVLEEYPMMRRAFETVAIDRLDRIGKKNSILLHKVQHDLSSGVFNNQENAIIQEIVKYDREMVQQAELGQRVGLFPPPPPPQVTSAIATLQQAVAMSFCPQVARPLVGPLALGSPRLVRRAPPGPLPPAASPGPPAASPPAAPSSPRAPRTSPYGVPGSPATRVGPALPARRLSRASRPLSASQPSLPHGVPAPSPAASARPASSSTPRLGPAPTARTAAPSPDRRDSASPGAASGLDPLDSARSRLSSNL", "details": "20 μM, n=6", "experimental": "(§1) cDNA encoding murine (HCN1, 2 and 4) and human (HCN3) HCN channels were subcloned into pGH19 (HCN1 and 4) or pGHE (HCN2 and HCN3) vectors and amplified in STBL2 cells (Invitrogen Corporation, Carlsbad, Calif.). cRNA was transcribed from NheI (HCN1, HCN3 and HCN4) or SphI (HCN2) linearized DNA using T7 RNA polymerase (Message Machine; Ambion, Houston, Tex.). 11-50 ng RNA was injected into each Xenopus oocyte.\n(§2) Recordings were made from Xenopus oocytes 2-5 days after cRNA injection. Cells were maintained in L-15 media without ficoll (Specialty Media, Phillipsburg, N.J.) at 17° C. until use.\n(§3) Two microelectrode voltage clamp (TEVC) data, acquired using a Warner Instruments (Hamden, Conn.) OC-725C amplifier, were recorded with Pulse software (HEKA Elektronik, Lambrecht/Pfalz, Germany) following filtering of the wide bandwidth output of the clamp at 2.5 kHz (with a Frequency Devices 902 8-pole Bessel filter) and digitization at 5 kHz using an ITC-18 interface (Instrutech Corporation, Port Washington, N.Y.).\n(§4) Microelectrodes were fabricated from 1B120-F4 borosilicate glass (World Precision Instruments, Sarasota, Fla.) and had resistances of 0.1-0.5 MΩ (I passing) and 1-4 MΩ (V sensing) when filled with 3 M KCl. The Ag—AgCl ground wire(s) of the active virtual ground circuit were connected to the bath solution by 3M KCl-2% agar salt bridges placed downstream of, but close to, the oocyte. Recordings were obtained at room temperature (22-24° C.)."}, "HCN3": {"target": "HCN3 (Homo sapiens, UniProt Q9P1Z3)", "sequence (Q9P1Z3 whole entry)": "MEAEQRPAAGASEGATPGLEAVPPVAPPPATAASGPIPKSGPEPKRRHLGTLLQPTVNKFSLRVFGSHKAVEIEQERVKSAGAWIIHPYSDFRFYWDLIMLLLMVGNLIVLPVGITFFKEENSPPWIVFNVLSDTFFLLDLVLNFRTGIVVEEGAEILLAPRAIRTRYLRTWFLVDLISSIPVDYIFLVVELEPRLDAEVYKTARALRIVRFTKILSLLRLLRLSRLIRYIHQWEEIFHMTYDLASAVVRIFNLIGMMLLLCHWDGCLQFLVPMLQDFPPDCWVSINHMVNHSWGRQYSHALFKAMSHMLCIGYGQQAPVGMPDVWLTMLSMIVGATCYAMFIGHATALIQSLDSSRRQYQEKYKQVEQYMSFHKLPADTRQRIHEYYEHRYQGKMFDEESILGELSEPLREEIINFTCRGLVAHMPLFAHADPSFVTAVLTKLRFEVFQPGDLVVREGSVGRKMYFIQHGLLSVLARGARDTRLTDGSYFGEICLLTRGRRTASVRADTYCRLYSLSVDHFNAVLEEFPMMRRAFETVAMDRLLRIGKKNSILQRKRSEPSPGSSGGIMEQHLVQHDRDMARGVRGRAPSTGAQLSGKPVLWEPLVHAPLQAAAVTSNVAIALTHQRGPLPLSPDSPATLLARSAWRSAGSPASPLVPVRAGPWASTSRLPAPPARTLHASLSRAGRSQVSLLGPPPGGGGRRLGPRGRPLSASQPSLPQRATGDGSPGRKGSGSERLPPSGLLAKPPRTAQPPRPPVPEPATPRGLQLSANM", "details": "20 μM, n=6", "experimental": "as §1, §2, §3, §4"}, "HCN4": {"target": "HCN4 (Mus musculus, UniProt O70507)", "sequence (O70507 whole entry)": "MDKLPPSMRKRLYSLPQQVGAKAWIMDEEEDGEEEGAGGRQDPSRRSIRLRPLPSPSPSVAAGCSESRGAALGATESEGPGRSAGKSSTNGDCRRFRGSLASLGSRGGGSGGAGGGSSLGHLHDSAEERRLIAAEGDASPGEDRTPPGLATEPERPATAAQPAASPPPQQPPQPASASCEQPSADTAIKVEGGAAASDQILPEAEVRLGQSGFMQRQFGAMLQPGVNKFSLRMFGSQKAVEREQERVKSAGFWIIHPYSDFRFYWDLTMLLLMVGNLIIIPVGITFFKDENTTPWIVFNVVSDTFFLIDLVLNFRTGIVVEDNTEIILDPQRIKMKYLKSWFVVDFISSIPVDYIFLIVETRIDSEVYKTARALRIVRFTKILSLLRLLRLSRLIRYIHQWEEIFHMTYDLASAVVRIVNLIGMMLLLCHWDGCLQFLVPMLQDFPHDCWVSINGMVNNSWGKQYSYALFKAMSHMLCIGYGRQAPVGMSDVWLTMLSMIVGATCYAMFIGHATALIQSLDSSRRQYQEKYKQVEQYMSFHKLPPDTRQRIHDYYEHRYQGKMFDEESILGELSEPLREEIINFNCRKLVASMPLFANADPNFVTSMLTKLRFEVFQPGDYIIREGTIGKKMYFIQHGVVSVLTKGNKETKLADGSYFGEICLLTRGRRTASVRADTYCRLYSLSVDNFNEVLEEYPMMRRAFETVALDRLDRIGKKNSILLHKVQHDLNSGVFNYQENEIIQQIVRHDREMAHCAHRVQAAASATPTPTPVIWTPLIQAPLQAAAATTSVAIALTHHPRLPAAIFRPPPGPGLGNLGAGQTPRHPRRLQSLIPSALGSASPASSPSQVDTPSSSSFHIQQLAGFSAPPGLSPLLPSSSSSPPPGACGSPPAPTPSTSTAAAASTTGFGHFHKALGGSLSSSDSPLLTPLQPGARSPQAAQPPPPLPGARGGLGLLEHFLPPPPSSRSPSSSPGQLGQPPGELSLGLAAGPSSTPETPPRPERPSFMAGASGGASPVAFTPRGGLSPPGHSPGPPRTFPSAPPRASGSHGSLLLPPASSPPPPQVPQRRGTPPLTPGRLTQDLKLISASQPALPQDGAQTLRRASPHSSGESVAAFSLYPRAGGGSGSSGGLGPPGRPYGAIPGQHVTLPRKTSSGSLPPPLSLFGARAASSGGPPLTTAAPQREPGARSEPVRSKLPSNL", "details": "20 μM, n=4", "experimental": "as §1, §2, §3, §4"}, "[2]": {"test_system": "PNL-induced mechanical allodynia and hyperalgesia", "experiment": "Von Frey fiber test after partial sciatic nerve ligation (PNL)", "type": "in vivo, C57 Black/6J mice"}, "[3]": {"test_system": "PNL-induced thermal hyperalgesia", "experiment": "Hind paw withdrawal latency (HPWL) to heat source after PNL", "type": "in vivo, C57 Black/6J mice", "details": "i.p., 15% heat stimulus"}, "righting reflex [4]": {"test_system": "righting reflex", "details": "i.p. cumulative up to 60 mg/kg"}, "[5]": {"details": "variously reported; cited from earlier work"}, "righting reflex [6]": {"test_system": "righting reflex", "details": "cited from earlier work"}, "[7]": {"details": "cited from earlier work"}, "[8]": {"details": "HCN1 V1/2 dose-response, relative to 2,6-DTBP"}}, "note": "Where “and” joins values, the source holds several entries; their conditions need not be identical. Equal values may be shown once. Entries after “also recorded” stand apart in the source; their conditions may differ. Read-outs that look alike come from different tables or passages of the source."}
{"molecule": "CC(C)(C)c1ccc(O)c(C(C)(C)C)c1", "note": "[2,4-DTBP, 2,4-di-tert-butylphenol]", "values": [{"measurement": "HCN1 antagonism", "setting": "HCN1 channels", "value": "effective antagonist of HCN1"}, {"measurement": "offset of the 2,6-DTBP Hill fit line needed to describe the data", "setting": "HCN1 channels", "value": 2, "unit": "fold"}, {"measurement": "HCN isoform preference (words)", "setting": "HCN1 channels", "value": "preferentially inhibit HCN1 with little efficacy against HCN2, 3 or 4 channels"}, {"measurement": "allosteric modulation of GABAA-Rs", "setting": "GABAA-Rs", "value": "ineffective"}]}
{"molecule": "CCC(C)c1ccc(O)c(C(C)CC)c1", "note": "(stereo not shown) [2,4-DSBP, 2,4-di-sec-butylphenol]", "values": [{"measurement": "offset of the 2,6-DTBP Hill fit line needed to describe the data", "setting": "HCN1 channels; [8]", "value": 23, "unit": "fold"}, {"measurement": "allosteric modulation of GABAA-Rs", "setting": "GABAA-Rs", "value": "effective agonist of GABAA-Rs; also recorded: potent allosteric activators of the chloride channels"}, {"measurement": "anesthetic activity", "setting": "[1]", "value": "potent anesthetics"}]}
{"molecule": "CC(C)c1cccc(C(C)C)c1O", "note": "[propofol]", "values": [{"measurement": "EC50", "setting": "HCN1 channels; EC50 for hyperpolarization of V1/2 of HCN1 gating (Hill fit), 20 min incubation, Xenopus oocytes, TEVC", "value": "7 to 13 µM and 13 µM and ~13 µM"}, {"measurement": "HCN isoform preference (words)", "setting": "HCN1 channels", "value": "preferentially inhibits HCN1 with little efficacy against HCN2, 3 or 4 channels"}, {"measurement": "apparent stoichiometry h (Hill coefficient)", "setting": "HCN1 channels; Hill fit of dose-response", "value": 1.1}, {"measurement": "concentration at which shift in HCN1 V1/2 was significant", "setting": "HCN1 channels; versus DMSO control", "value": "≥ 3", "unit": "µM"}, {"measurement": "ΔV1/2 of HCN2", "setting": "HCN2", "value": "−9.1", "unit": "mV"}, {"measurement": "ΔV1/2 of HCN3", "setting": "HCN3", "value": "−0.6", "unit": "mV"}, {"measurement": "ΔV1/2 of HCN4", "setting": "HCN4", "value": 0.1, "unit": "mV"}, {"measurement": "difference between PW IPSI and PW CONTRA", "setting": "[2]; 20 mg/kg i.p.", "value": "significantly reduced"}, {"measurement": "PW IPSI response", "setting": "[2]; 60 mg/kg i.p. cumulative", "value": "indistinguishable from the control value of PW CONTRA"}, {"measurement": "effect on PW CONTRA, mechanical nociception", "setting": "[2]; 20 to 60 mg/kg i.p.", "value": "no statistically significant effect"}, {"measurement": "neuropathic analgesia occurs at doses lower than hypnosis/anesthesia", "setting": "[2]; i.p.", "value": "3-10 fold and 3 to 10 fold"}, {"measurement": "mechanical hyperalgesia/allodynia in ipsilateral paw", "setting": "[2]; i.p. cumulative dosing, post-PNL mice", "value": "markedly reduced the mechanical hyperalgesia observed in the ipsilateral paw; also recorded: selectively suppresses partial sciatic nerve ligation (PNL)-induced mechanical allodynia and hyperalgesia"}, {"measurement": "PW IPSI as a function of control PW CONTRA (ratio) after drug", "setting": "[2]; i.p., 2.5 to 4 g fibers averaged, 3.3 before drug, unity = complete amelioration", "value": 1.6}, {"measurement": "reversal of the neuropathic phenotype", "setting": "[2]; subhypnotic i.p. doses, 2.5 to 4 g fibers averaged", "value": "about 75%"}, {"measurement": "mechanical threshold, Logit transformation (allodynia, words)", "setting": "[2]; threshold set at PW of 0.1", "value": "selectively restored the mechanical threshold to that observed in the uninjured paw"}, {"measurement": "thermal hyperalgesia, ipsilateral HPWL (words)", "setting": "[3]", "value": "powerfully and preferentially relieved neuropathic thermal hyperalgesia; also recorded: relieve the neuropathic behavior; also recorded: selectively ameliorate PNL-induced thermal hyperalgesia"}, {"measurement": "thermal nociception, contralateral HPWL", "setting": "[3]", "value": "without significantly altering nociceptive behavior"}, {"measurement": "loss of righting reflex", "setting": "righting reflex [4]", "value": "No animals lost their righting reflex"}, {"measurement": "Plasma [propofol] Total", "setting": "Engdahl et al., 1998, calculated with MW 178.3", "value": 12.3, "unit": "µM"}, {"measurement": "estimated serum free concentration evoking analgesia", "setting": "estimated from 3 to 10 fold lower doses than anesthesia", "value": "0.1 to 0.3", "unit": "µM"}, {"measurement": "CSF concentration required for anesthesia relative to plasma", "setting": "from Table 2", "value": "approximately one-tenth"}, {"measurement": "aqueous solubility limit", "setting": "[5]", "value": "864 to 1740", "unit": "µM"}, {"measurement": "i.p. dose required for obviation of righting reflex", "setting": "righting reflex [6]; i.p.", "value": "greater than 100 mg/kg"}, {"measurement": "intravenous dose for anesthesia", "setting": "righting reflex [6]; mice, i.v.", "value": 5, "unit": "mg/kg"}, {"measurement": "Plasma [propofol] Total", "setting": "[7]; Engdahl et al., 1998", "value": 2.2, "unit": "µg/mL"}, {"measurement": "steady-state free concentration in the plasma", "setting": "[7]; during general anesthesia", "value": "~1", "unit": "µM"}]}
{"molecule": "CCC(C)c1cccc(C(C)CC)c1O", "note": "(stereo not shown) [2,6-DSBP, 2,6-di-sec-butylphenol]", "values": [{"measurement": "HCN1 antagonism", "setting": "HCN1 channels", "value": "weak HCN1 antagonist"}, {"measurement": "offset of the 2,6-DTBP Hill fit line needed to describe the data", "setting": "HCN1 channels; [8]", "value": 15, "unit": "fold"}, {"measurement": "allosteric modulation of GABAA-Rs", "setting": "GABAA-Rs", "value": "potent allosteric activators of the chloride channels"}, {"measurement": "anesthetic activity", "setting": "[1]", "value": "potent anesthetics"}]}
